Experimental data as given in publication PMC7944397 (ACS infectious diseases, 2021).
Read-outs that look alike come from different tables or passages of the source.

Columns and labels:
cathepsin L = cathepsin L (Homo sapiens, UniProt P07711); assay: FRET enzymatic assay; type: biochemical
MERS-CoV M^pro [1] = biological target: T1, MERS-CoV M^pro (Human betacoronavirus 2c EMC/2012, UniProt K0BWD0); type: biochemical; settings: read-out: KI
MERS-CoV M^pro [2] = biological target: T1, MERS-CoV M^pro; assay: biochemical

Chain of cathepsin L (P07711 114-288): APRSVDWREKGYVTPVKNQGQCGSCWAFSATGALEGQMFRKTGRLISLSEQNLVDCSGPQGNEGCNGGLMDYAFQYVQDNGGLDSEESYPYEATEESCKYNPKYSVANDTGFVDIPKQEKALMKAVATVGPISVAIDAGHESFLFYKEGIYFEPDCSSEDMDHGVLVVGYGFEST
Chain of cathepsin L (P07711 292-333): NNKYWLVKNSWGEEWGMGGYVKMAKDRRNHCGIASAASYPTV
T1 sequence (K0BWD0 3248-3553 limits assumed): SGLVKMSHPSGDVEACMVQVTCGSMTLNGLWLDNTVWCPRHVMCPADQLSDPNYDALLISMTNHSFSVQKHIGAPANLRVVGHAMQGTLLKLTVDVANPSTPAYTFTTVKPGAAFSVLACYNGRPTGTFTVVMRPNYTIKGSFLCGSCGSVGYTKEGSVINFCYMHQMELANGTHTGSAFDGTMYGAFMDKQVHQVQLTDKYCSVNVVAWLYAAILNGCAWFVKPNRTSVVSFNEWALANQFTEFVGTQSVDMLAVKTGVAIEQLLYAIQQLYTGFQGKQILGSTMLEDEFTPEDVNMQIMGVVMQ

Row | SMILES | IC50 (cathepsin L) [nM] | KI (inactivation) (MERS-CoV M^pro [1]) [nM] | Ki (MERS-CoV M^pro [2]) [nM] | IC50 (cathepsin L; individual value only in figure)
1 | CC(C)C[C@H](NC(=O)[C@@H]1O[C@H]1C(=O)O)C(=O)NCCCCN=C(N)N [E-64, reference compound] | 5.45 | – | – | –
2 | CC(C)(C)NC(=O)N[C@H](C(=O)N1C[C@H]2[C@@H]([C@H]1C(=O)NC(CC1CCC1)C(=O)C(N)=O)C2(C)C)C(C)(C)C (some centres unmarked) [boceprevir] | 153 | 1650 ± 120 | – | –
3 | CCCC(NC(=O)[C@H](CC(C)C)NC(=O)OCc1ccccc1)C(=O)C(=O)NCc1ccccn1 (some centres unmarked) [calpain inhibitor XII] | – | – | 1320 ± 70 | calpain inhibitors II and XII and GC-376 had potent inhibition against cathepsin L
